Experimental data: patent US7803801B2, “Aminopyridine compounds having Syk inhibitory activity” (Japan Tobacco, Inc., priority 2005, dated 2010)

What was measured:
[1] = tested on: cultured human mast cells; test: Degranulation inhibition test using cultured human mast cells (IgE cross-linking, β-Hexosaminidase release); format: cell-based; conditions: Mast cell; Tables 2-x, thiophene compounds B; cultured human mast cells; read-out: human degranulation ave. IC50
Outline: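 Degranulation was triggered by anti-hIgE (10 μg/mL final, 30 min, 37 °C) after a 10-min compound pretreatment (DMSO 0.1%) of cord-blood CD34+-derived mast cells primed 5 days with IL-4 and IgE. β-Hexosaminidase in supernatant was measured with p-nitrophenyl-GlcNAc substrate (A405), expressed against water-lysed total; IC50 (M).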

[2] = molecular target: GST-Syk Full Protein (human) (Homo sapiens, UniProt P43405); test: Syk kinase inhibition test (HTRF method); format: biochemical; conditions: Tables 2-x, thiophene compounds B; read-out: sykHTRK ave IC50
Outline: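 HTRF read-out: after EDTA termination and 1 h with XL665-streptavidin and Eu-anti-phosphotyrosine, the 665/620 nm ratio was measured. The reaction ran 30 min at 20–25 °C with final 6.4 nM human GST-Syk, 250 nM biotinylated peptide, 100 μM ATP, pH 7.0 HEPES buffer, 2% DMSO.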

SMILES	IC50 [1] [nM]	IC50 [2] [nM]
Cc1ccnc(Nc2cccc(-c3ccc([N+](=O)[O-])s3)n2)c1 [Compound B-28]	> 1000	100 to 1000
CC(=O)c1ccc(-c2ncc(C)c(Nc3cc(C)ccn3)n2)s1 [Compound B-29]	> 1000	100 to 1000
CO/N=C(\C)c1ccc(-c2cccc(Nc3cc(N(C)C)ncn3)n2)s1 [Compound B-32]	> 1000	> 1000
CO/N=C(\C)c1ccc(-c2cccc(Nc3cc(OC(C)C)ncn3)n2)s1 [Compound B-33]	> 1000	100 to 1000
Cc1ccnc(Nc2cccc(-c3ccc(NC(=O)OC(C)(C)C)s3)n2)c1 [Compound B-34]	> 1000	100 to 1000
COC(=O)c1sc(-c2cccc(Nc3cc(C)ccn3)n2)cc1C [Compound B-36]	> 1000	100 to 1000
Cc1ccnc(Nc2cccc(-c3cc(C)c(C(=O)O)s3)n2)c1 [Compound B-37]	> 1000	100 to 1000
C/C(=N\OCCO)c1ccc(-c2cccc(Nc3cc(C)ccn3)n2)s1 [Compound B-38, 1-{5-[6-(4-methylpyridin-2-ylamino)pyridin-2-yl]thiophen-2-yl}ethanone O-(2-hydroxyethyl)oxime]	100 to 1000	< 100
CC(=O)c1sc(-c2cccc(Nc3cc(C)ccn3)n2)cc1C [Compound B-40]	> 1000	100 to 1000
Cc1ccnc(Nc2cccc(-c3ccc(C(=O)NCC(C)O)s3)n2)c1 (centres unmarked) [Compound B-41]	100 to 1000	100 to 1000
CC(=NO)c1sc(-c2cccc(Nc3cc(C)ccn3)n2)cc1C [Compound B-42]	> 1000	100 to 1000
Cc1ccnc(Nc2cccc(-c3ccc(C(=O)NCCN)s3)n2)c1 [Compound B-43, N-(2-aminoethyl)-5-[6-(4-methylpyridin-2-ylamino)pyridin-2-yl]thiophene-2-carboxamide]	> 1000	< 100
COC(=O)c1cc(Br)nc(Nc2cccc(-c3ccc(C(C)=O)s3)n2)c1 [Compound B-44]	> 1000	> 1000
Cc1ccnc(Nc2cccc(-c3ccc(C(O)C(C)C)s3)n2)c1 (centres unmarked) [Compound B-45]	> 1000	100 to 1000
CCC(O)c1ccc(-c2cccc(Nc3cc(C)ccn3)n2)s1 (centres unmarked) [Compound B-47]	100 to 1000	100 to 1000
CCC(=O)c1ccc(-c2cccc(Nc3cc(C)ccn3)n2)s1 [Compound B-48]	> 1000	100 to 1000
CCC(=NO)c1ccc(-c2cccc(Nc3cc(C)ccn3)n2)s1 [Compound B-51, 1-{5-[6-(4-methylpyridin-2-ylamino)pyridin-2-yl]thiophen-2-yl}propan-1-one oxime]	> 1000	< 100
CCOC(=O)Cc1ccnc(Nc2cccc(-c3ccc(C(C)=O)s3)n2)c1 [Compound B-52, {2-[6-(5-acetylthiophen-2-yl)pyridin-2-ylamino]pyridin-4-yl}acetic acid ethyl ester]	> 1000	< 100
Cc1ccnc(Nc2cccc(-c3ccc(C(O)CCO)s3)n2)c1 (centres unmarked) [Compound B-54]	100 to 1000	100 to 1000
CC(O)c1ccc(-c2cccc(Nc3cc(CCO)ccn3)n2)s1 (centres unmarked) [Compound B-55, 1-(5-{6-[4-(2-hydroxyethyl)pyridin-2-ylamino]pyridin-2-yl}thiophen-2-yl)ethanol]	100 to 1000	< 100

SMILES	IC50 [1] [nM]	IC50 [2] [nM]
CC(=O)c1ccc(-c2cccc(Nc3cc(CCO)ccn3)n2)s1 [Compound B-56]	100 to 1000	100 to 1000
Cc1ccnc(Nc2cccc(-c3ccc(C(=O)CCO)s3)n2)c1 [Compound B-57]	100 to 1000	100 to 1000
CC(=O)c1ccc(-c2cccc(Nc3cc(C(=O)O)ccn3)n2)s1 [Compound B-58]	> 1000	> 1000
Cc1ccnc(Nc2cccc(-c3ccc(-c4noc(=O)[nH]4)s3)n2)c1 [Compound B-61]	> 1000	100 to 1000
CC(=O)c1ccc(-c2cccc(Nc3cc(NC(C)C)ccn3)n2)s1 [Compound B-63]	> 1000	> 1000
CONC(=O)c1ccc(-c2cccc(Nc3cc(C)ccn3)n2)s1 [Compound B-64]	100 to 1000	100 to 1000
CC(=O)c1ccc(-c2cccc(Nc3cc(C(N)=O)ccn3)n2)s1 [Compound B-65]	> 1000	100 to 1000
Cc1ccnc(Nc2cccc(-c3ccc(-c4cc(C)no4)s3)n2)c1 [Compound B-66]	> 1000	100 to 1000
CC(=O)c1csc(-c2cccc(Nc3cc(C)ccn3)n2)c1 [Compound B-68]	> 1000	100 to 1000
Cc1ccnc(Nc2cccc(-c3ccc(CC(C)O)s3)n2)c1 (centres unmarked) [Compound B-71]	100 to 1000	100 to 1000
Cc1ccnc(Nc2cccc(-c3ccc(C(=O)NC(C)(C)CO)s3)n2)c1 [Compound B-72]	100 to 1000	100 to 1000
CC(=O)c1ccc(-c2cccc(Nc3cc(OCCO)ccn3)n2)s1 [Compound B-73, 1-(5-{6-[4-(2-hydroxyethoxy)pyridin-2-ylamino]pyridin-2-yl}thiophen-2-yl)ethanone]	100 to 1000	< 100
C/C(=N\O)c1ccc(-c2cccc(Nc3cc(Cl)ccn3)n2)s1 [Compound B-75, 1-{5-[6-(4-chloropyridin-2-ylamino)pyridin-2-yl]thiophen-2-yl}ethanone oxime]	100 to 1000	< 100
CC(=O)c1ccc(-c2cccc(Nc3ccc(C)cn3)n2)s1 [Compound B-76]	> 1000	> 1000
CCOC(=O)c1cc(Nc2cc(C)ccn2)nc(-c2ccc(C(C)=O)s2)c1 [Compound B-77]	> 1000	> 1000
Cc1ccnc(Nc2cccc(-c3ccc(C(=O)N4CCC(O)CC4)s3)n2)c1 [Compound B-79]	100 to 1000	100 to 1000
Cc1ccnc(Nc2cccc(-c3ccc(C(=O)N4CCOCC4)s3)n2)c1 [Compound B-81]	100 to 1000	100 to 1000
CC(=O)c1ccc(-c2cccc(Nc3cc(OCCN(C)C)ccn3)n2)s1 [Compound B-82]	100 to 1000	100 to 1000
CC(=O)N1CCN(C(=O)c2ccc(-c3cccc(Nc4cc(C)ccn4)n3)s2)CC1 [Compound B-85]	100 to 1000	100 to 1000
CC(=O)O/N=C(\C)c1ccc(-c2cccc(Nc3cc(C)ccn3)n2)s1 [Compound B-86]	100 to 1000	100 to 1000

The remaining lines, values ahead:

IC50 [1] [nM]	IC50 [2] [nM]	SMILES
> 1000	< 100	CC(=O)c1ccc(-c2cccc(Nc3cc(OC(C)C)ncn3)n2)s1 [Compound B-30, 1-{5-[6-(6-isopropoxypyrimidin-4-ylamino)pyridin-2-yl]thiophen-2-yl}ethanone]
100 to 1000	100 to 1000	Cc1ccnc(Nc2cccc(-c3ccc(NC(=O)[C@H](C)O)s3)n2)c1 [Compound B-35]
> 1000	100 to 1000	Cc1ccnc(Nc2cccc(-c3ccc(C4=NC(C)(C)CO4)s3)n2)c1 [Compound B-39]
> 1000	100 to 1000	COCCO/N=C(\C)c1ccc(-c2cccc(Nc3cc(C)ccn3)n2)s1 [Compound B-46]
> 1000	100 to 1000	Cc1ccnc(Nc2cccc(-c3ccc(C(=O)C(C)C)s3)n2)c1 [Compound B-49]
> 1000	100 to 1000	Cc1ccnc(Nc2cccc(-c3ccc(C(=NO)C(C)C)s3)n2)c1 [Compound B-50]
> 1000	< 100	COC(=O)c1ccnc(Nc2cccc(-c3ccc(C(C)=O)s3)n2)c1 [Compound B-53, 2-[6-(5-acetylthiophen-2-yl)pyridin-2-ylamino]isonicotinic acid methyl ester]
> 1000	100 to 1000	Cc1ccnc(Nc2cccc(-c3ccc(C#N)s3)n2)c1 [Compound B-59]
100 to 1000	< 100	Cc1ccnc(Nc2cccc(-c3ccc(/C(N)=N/O)s3)n2)c1 [Compound B-60, N-hydroxy-5-[6-(4-methylpyridin-2-ylamino)pyridin-2-yl]thiophene-2-carboxyamidine]
> 1000	> 1000	CC(=O)c1ccc(-c2cccc(Nc3nccc(C)c3[N+](=O)[O-])n2)s1 [Compound B-62]
> 1000	100 to 1000	CC(=O)c1ccc(-c2cccc(Nc3ccccn3)n2)s1 [Compound B-67]
100 to 1000	100 to 1000	CO/N=C(\N)c1ccc(-c2cccc(Nc3cc(C)ccn3)n2)s1 [Compound B-69]
100 to 1000	100 to 1000	Cc1ccnc(Nc2cccc(-c3cc(C)c(C(C)O)s3)n2)c1 (centres unmarked) [Compound B-70]
100 to 1000	< 100	CC(=O)c1ccc(-c2cccc(Nc3cc(Cl)ccn3)n2)s1 [Compound B-74, 1-{5-[6-(4-chloropyridin-2-ylamino)pyridin-2-yl]thiophen-2-yl}ethanone]
100 to 1000	100 to 1000	CC(=O)c1ccc(-c2cccc(Nc3cc(C4(C)OCCO4)ccn3)n2)s1 [Compound B-78]
100 to 1000	100 to 1000	Cc1ccnc(Nc2cccc(-c3ccc(C(=O)N4CCC[C@H]4CO)s3)n2)c1 [Compound B-80]
100 to 1000	100 to 1000	CC(=O)c1ccnc(Nc2cccc(-c3ccc(C(C)=O)s3)n2)c1 [Compound B-83]
100 to 1000	< 100	Cc1ccnc(Nc2cccc(-c3ccc(C(=O)N4CCNCC4)s3)n2)c1 [Compound B-84, {5-[6-(4-methylpyridin-2-ylamino)pyridin-2-yl]thiophen-2-yl}piperazin-1-ylmethanone]
